Results: PMC8226722, “Comparison of Solution Chemical Properties and Biological Activity of Ruthenium Complexes of Selected β-Diketone, 8-Hydroxyquinoline and Pyrithione Ligands” (Pharmaceuticals, 2021)

Key:
[1] = molecular target: ABCB1 (P-glycoprotein) efflux pump (Homo sapiens, UniProt P08183); assay: Rhodamine 123 uptake/retention fluorescence assay (flow cytometry) in Colo 320 cells
Protocol: It is important to note, that the resistance of this cell line is primarily mediated by the overexpression of the ABC-transporter P-glycoprotein, which pumps out xenobiotics from the cytosol. […] This dye is membrane-permeable and is rapidly taken up by the cells; therefore, it can be effectively used for the screening of efflux pump inhibiting compounds. […] Then the fluorescence accumulation ratios (FAR) were calculated (Figure 1) according to the equation given in the Materials and Methods section. Verapamil was used as a reference inhibitor compound.
This fluorescence-based detection system uses verapamil (a first-generation, competitive EPI) as reference inhibitor. […] The tested compounds were added at different concentrations (2 and 20 µM; from 1 and 10 mM stock solutions, respectively) and the samples were incubated for 10 min at room temperature.
The parameters evaluated from flow cytometric experiments are forward scatter count (FSC, provides information about cell size); side scatter count (SSC, proportional to cell granularity or internal complexity); mean fluorescence of the cells (FL-1) and the computed FAR and FAR quotients (Table S1).

[2] = molecular target: T1, Human serum albumin (HSA) (Homo sapiens, UniProt P02768); assay: HSA binding by spectrofluorometry (Trp-214 quenching, site marker displacement); settings: pH 7.40 PBS’, 25 °C; for logKWF’ (warfarin displacement): site I marker; for logKDG’ (dansyl glycine displacement): site II marker
T1 construct: purchased Sigma-Aldrich A8763
T1 sequence (P02768 25-609): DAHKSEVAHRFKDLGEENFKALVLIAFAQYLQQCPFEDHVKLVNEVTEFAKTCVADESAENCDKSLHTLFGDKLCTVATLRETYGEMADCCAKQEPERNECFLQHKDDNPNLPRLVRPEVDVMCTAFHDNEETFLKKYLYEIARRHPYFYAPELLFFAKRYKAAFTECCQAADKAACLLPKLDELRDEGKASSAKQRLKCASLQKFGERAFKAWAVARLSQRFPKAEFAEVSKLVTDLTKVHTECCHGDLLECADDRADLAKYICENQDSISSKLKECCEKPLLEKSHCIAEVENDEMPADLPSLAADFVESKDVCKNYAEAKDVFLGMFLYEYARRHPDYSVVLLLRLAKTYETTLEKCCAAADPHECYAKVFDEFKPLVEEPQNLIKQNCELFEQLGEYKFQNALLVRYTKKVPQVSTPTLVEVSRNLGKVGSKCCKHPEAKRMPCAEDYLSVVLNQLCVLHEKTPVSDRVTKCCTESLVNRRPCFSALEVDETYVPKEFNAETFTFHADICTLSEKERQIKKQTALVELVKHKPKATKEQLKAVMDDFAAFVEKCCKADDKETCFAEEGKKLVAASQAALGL
Protocol: Steady-state spectrofluorometric measurements were also performed to assay the binding interactions at the binding pockets of HSA located in the IIA and IIIA subdomains. His residues are found nearby at both binding sites, and covalent binding is possible here. Trp-214 quenching and site marker displacement experiments were conducted as reported in our former works. Warfarin (WF) was applied as site I marker and dansyl glycine (DG) was used for site II. Representative emission spectra for Trp-214 quenching in case of 1 are shown in Figure 8a, and changes in the intensities at the emission maximum are compared for 1–4 in Figure 8b. Based on the spectral changes conditional binding constants were computed for both of the quenching and site marker displacement assays (Table 5).
Complex 2 is hardly bound at site I, while binding of 3 and 1 is considered as a strong interaction here.
Fluorescence studies were performed using a Fluoromax (Horiba Jobin Yvon, Kyoto, Japan) fluorometer in 1 × 1 cm quartz cells. All samples contained 1 μM HSA and various HSA-to-metal complex ratios (up to complex:HSA = 1:40) were used. Site marker displacement experiments were also carried out, and in the samples the HSA-to-site marker (WF or DG) ratio was 1:1 and the concentration of the complex compounds was varied. For the Trp quenching, the WF and DG displacement experiments λEX = 295, 310 and 335 nm was applied and emission spectra were recorded spectra in the wavelength range 310–450, 320–500 and 420–600 nm, respectively. Computer program HypSpec was utilized for calculation of binding constants (K’) for HSA–metal complex adducts similar to the approach described in our former works. Calculations were always based on data obtained from at least two independent measurements.

[3] = Solution stability and speciation (UV-vis, 1H-NMR, pH-potentiometry); settings: for pH-dependent stability, UV-vis spectra: pH range 2–11, 24 h; for logK formation constant: suggested on the basis of pH-potentiometric data
Protocol: In order to confirm our prediction, time-dependent UV-visible (UV-vis) spectra were recorded for complexes 5–8 at pH 7.4 in aqueous solution (in modified phosphate buffered saline (PBS) buffer—PBS’) and in Eagle’s minimum essential medium (EMEM) used for the cytotoxicity studies in the presence of 2% (v/v) dimethyl sulfoxide (DMSO). […] Additionally, ^1H-NMR spectra were recorded for more water-soluble complexes 6–8.
In order to compare the stability of 1 and 3 at physiological pH, a serial dilution was made and UV-vis spectra were recorded in a wide concentration range (10 μM–3 mM) (Figure S10).
Titrations were performed in a carbonate-free KOH solution (0.20 M). The exact concentration of HCl and KOH solutions was determined by pH-potentiometric titrations.
The path length (l) was usually 1 cm, and 2, 5, 20 or 50 mm cells were used occasionally. Equilibrium constants (proton dissociation, stability constants, conditional stability constants (K’7.4) for the formation of mim adducts) and the individual spectra of the species were calculated with the computer program PSEQUAD [55]. The spectrophotometric titrations were performed in aqueous solution of the complexes at 25.0 ± 0.1 °C at an ionic strength of 0.20 M (KCl). Spectrum of the solution of 200 μM complex upon addition of one or two equivalents of its own ligand or phen was also measured at pH 7.4. UV-vis spectra recorded for the complexes as a function of chloride concentrations or PTA (in case of the chlorido complexes) were used to investigate the co-ligand exchange processes at pH 7.4. […] In some cases, the measurements were performed in the presence of 1–2% (Cl^−/PTA exchange reactions) or 6–8% (v/v) (interaction of mim with complexes 2, 4) DMSO.
^1H-NMR stability studies were carried out on a Bruker Avance III HD 500 MHz instrument. All ^1H-NMR spectra were recorded on samples containing 10% (v/v) D2O with the WATERGATE water suppression pulse scheme using DSS internal standard. Stability of complexes 6–8 was checked over time by ^1H-NMR spectroscopy at 500 μM in PBS’ or in EMEM (with 10% (v/v) DMSO-d6).

[4] = Parallel artificial membrane permeability assay (PAMPA); settings: for recovery: pH 7.4; for Peff, effective passive permeability: pH 7.4, 100 mM chloride, 5 h
Protocol: Chloride ion concentrations of 4, 24 and 100 mM were chosen according to the chloride content of the nucleus, cytosol and blood serum, respectively. […] Then parallel artificial membrane permeability assay (PAMPA) was used to estimate the ability of the complexes to penetrate membranes by passive diffusion and the effective passive permeability coefficients (Peff) obtained for complexes 1–3 are shown in Table 4 (in case of 4, there are no data due to formation of precipitate).
Distribution coefficients at physiological pH (D7.4) of the complexes were determined by the traditional shake-flask method in n-octanol/buffered aqueous solution at pH 7.40 (20 mM phosphate buffer) at various chloride concentrations and at 25.0 ± 0.2 °C using UV-vis detection as described in our former works [37, 38, 42]. PAMPA was applied for the complexes with a Gentest pre-coated PAMPA Plate System (Corning, Corning, NY, USA) [56]. Briefly, a 96-well filter plate was used as the permeation acceptor and the 96-well bottom plate was used as the permeation donor. For simplicity, PBS was used both as donor and acceptor buffer throughout this study. […] Peff values were calculated according to the equation reported by Yu et al. [57].

Sequence of ABCB1 (P-glycoprotein) efflux pump (P08183 whole entry): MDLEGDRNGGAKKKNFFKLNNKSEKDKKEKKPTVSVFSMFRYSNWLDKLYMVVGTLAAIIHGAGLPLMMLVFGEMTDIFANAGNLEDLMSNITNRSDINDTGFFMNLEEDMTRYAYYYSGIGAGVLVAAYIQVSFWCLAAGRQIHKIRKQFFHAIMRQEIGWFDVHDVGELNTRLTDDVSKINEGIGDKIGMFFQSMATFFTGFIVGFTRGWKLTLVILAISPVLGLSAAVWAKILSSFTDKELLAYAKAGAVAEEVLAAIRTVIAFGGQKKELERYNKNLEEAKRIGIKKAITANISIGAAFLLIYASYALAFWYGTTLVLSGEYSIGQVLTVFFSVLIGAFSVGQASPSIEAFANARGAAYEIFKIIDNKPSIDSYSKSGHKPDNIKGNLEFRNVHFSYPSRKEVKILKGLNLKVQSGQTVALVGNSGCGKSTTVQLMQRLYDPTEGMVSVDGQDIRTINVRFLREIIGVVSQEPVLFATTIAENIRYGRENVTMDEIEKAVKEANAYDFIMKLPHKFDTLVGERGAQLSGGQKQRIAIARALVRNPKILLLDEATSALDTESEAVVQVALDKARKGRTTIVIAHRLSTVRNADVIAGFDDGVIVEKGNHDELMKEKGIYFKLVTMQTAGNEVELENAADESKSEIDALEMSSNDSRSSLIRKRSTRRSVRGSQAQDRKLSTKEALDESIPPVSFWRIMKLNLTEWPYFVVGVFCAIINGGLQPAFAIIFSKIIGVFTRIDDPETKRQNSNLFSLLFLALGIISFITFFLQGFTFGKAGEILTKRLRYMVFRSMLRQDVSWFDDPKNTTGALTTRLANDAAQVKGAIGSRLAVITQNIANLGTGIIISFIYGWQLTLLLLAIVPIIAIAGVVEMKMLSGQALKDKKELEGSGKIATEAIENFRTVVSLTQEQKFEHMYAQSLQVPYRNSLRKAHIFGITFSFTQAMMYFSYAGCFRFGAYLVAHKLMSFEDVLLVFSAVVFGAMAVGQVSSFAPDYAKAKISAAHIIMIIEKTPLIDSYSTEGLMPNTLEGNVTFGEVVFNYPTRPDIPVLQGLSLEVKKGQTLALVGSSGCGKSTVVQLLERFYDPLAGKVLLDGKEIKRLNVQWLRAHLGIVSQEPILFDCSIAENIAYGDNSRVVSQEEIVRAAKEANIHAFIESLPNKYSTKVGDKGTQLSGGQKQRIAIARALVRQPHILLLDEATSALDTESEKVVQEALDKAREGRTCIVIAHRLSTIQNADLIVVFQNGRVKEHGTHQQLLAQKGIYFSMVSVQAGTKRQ

Row | Compound | FAR fluorescence accumulation ratio ([1]; Colo 320, 2 μM) | FAR quotient (FAR related to that of 20 μM verapamil) ([1]; Colo 320, 2 μM) [%] | FSC forward scatter count ([1]; Colo 320, 2 μM) | SSC side scatter count ([1]; Colo 320, 2 μM) | FAR fluorescence accumulation ratio ([1]; Colo 320, 20 μM) | FAR quotient (FAR related to that of 20 μM verapamil) ([1]; Colo 320, 20 μM) [%] | FSC forward scatter count ([1]; Colo 320, 20 μM) | SSC side scatter count ([1]; Colo 320, 20 μM) | FL-1 mean fluorescence of the cells ([1]; Colo 320, rhodamine 123, 2 μM) | FL-1 mean fluorescence of the cells ([1]; Colo 320, rhodamine 123, 20 μM) | logKQ’ (Trp-214 quenching) ([2]; batch, 48 h equilibration) | logKQ’ (Trp-214 quenching) ([2]; titration, site I) | pH-dependent stability, UV-vis spectra [3] | recovery [4] [%] | Peff, effective passive permeability [4] [cm/s] | logKWF’ (warfarin displacement) [2] | logKDG’ (dansyl glycine displacement) [2] | logK formation constant [3] | fraction of unbound Ru(η6-p-cymene) ([3]; 1H-NMR, pH 1.0, 24 h, 200 mM chloride) [%]
1 | C1N2CN3CN1CP(C2)C3.Cc1ccc(C(C)C)cc1.F[P-](F)(F)(F)(F)F.[O-]n1ccc2ccccc2c1=S.[Ru+2] [complex 4] | 0.82 | 17.0 | 2014 | 959 | 1.70 | 35.2 | 1977 | 973 | 4.33 | 8.95 | 5.39 ± 0.03 | 4.46 ± 0.03 | stayed unchanged | – | – | – | – | – | –
2 | C1N2CN3CN1CP(C2)C3.Cc1ccc(C(C)C)cc1.F[P-](F)(F)(F)(F)F.[O-]n1ccccc1=S.[Ru+2] [complex 2] | 1.02 | 21.3 | 2034 | 962 | 1.02 | 21.3 | 2071 | 1024 | 5.4 | 5.41 | – | <4 | stayed unchanged | 15 | 2.88e-06 | – | – | – | –
3 | Cc1ccc(C(C)C)cc1.[Cl-].[O-]n1ccc2ccccc2c1=S.[Ru+2] [complex 3] | – | – | – | – | – | – | – | – | – | – | – | 6.18 ± 0.03 | – | 8.1 | 3.35e-06 | 5.98 ± 0.03 | 5.61 ± 0.03 | > 8 | –
4 | C1N2CN3CN1CP(C2)C3.Cc1ccc(C(C)C)cc1.F[P-](F)(F)(F)(F)F.O=C(C=C([O-])C(F)(F)F)c1ccc(Cl)cc1.[Ru+2] [complex 8] | 0.66 | 13.8 | 1925 | 877 | 1.08 | 22.4 | 1950 | 917 | 3.51 | 5.68 | – | – | – | – | – | – | – | – | –
5 | Cc1ccc(C(C)C)cc1.[Cl-].[O-]n1ccccc1=S.[Ru+2] [complex 1] | – | – | – | – | – | – | – | – | – | – | – | 5.81 ± 0.03 | – | 1.3 | 1.13e-06 | 6.16 ± 0.03 | 5.80 ± 0.03 | > 8 | < 3
6 | Cc1ccc(C(C)C)cc1.O=C(C=C([O-])C(F)(F)F)c1ccc(Cl)cc1.[Cl-].[Ru+2] [complex 7] | 1.11 | 23.1 | 1988 | 946 | 1.31 | 27.3 | 1909 | 900 | 5.86 | 6.94 | – | – | – | – | – | – | – | – | –
